What was measured:
[1] = molecular target: Adrenocorticotropic hormone receptor (Homo sapiens) (UniProt Q01718); test: RLU of MC2R at 1.0 µM in the […] PRESTO-Tango GPCRome screen; settings: Compound concentration 1.0 uM
[2] = molecular target: G-protein coupled receptor 135 (Homo sapiens) (UniProt Q8IZ08); test: RLU of GPR135 at 1.0 µM in the […] PRESTO-Tango GPCRome screen; settings: Compound concentration 1.0 uM
[3] = molecular target: Muscarinic acetylcholine receptor M4 (Homo sapiens) (UniProt P08173); test: RLU of CHRM4 at 1.0 µM in the […] PRESTO-Tango GPCRome screen; settings: Compound concentration 1.0 uM
[4] = molecular target: D(3) dopamine receptor (Homo sapiens) (UniProt P35462); test: RLU of DRD3 at 1.0 µM in the […] PRESTO-Tango GPCRome screen; settings: Compound concentration 1.0 uM
[5] = molecular target: G-protein coupled receptor 3 (Homo sapiens) (UniProt P46089); test: RLU of GPR3 at 1.0 µM in the […] PRESTO-Tango GPCRome screen; settings: Compound concentration 1.0 uM
[6] = molecular target: Neurotensin receptor type 2 (Homo sapiens) (UniProt O95665); test: RLU of NTSR2 at 1.0 µM in the […] PRESTO-Tango GPCRome screen; settings: Compound concentration 1.0 uM
[7] = molecular target: 5-hydroxytryptamine receptor 4 (Homo sapiens) (UniProt Q13639); test: RLU of HTR4 at 1.0 µM in the […] PRESTO-Tango GPCRome screen; settings: Compound concentration 1.0 uM
[8] = molecular target: Probable G-protein coupled receptor 160 (Homo sapiens) (UniProt Q9UJ42); test: RLU of GPR160 at 1.0 µM in the […] PRESTO-Tango GPCRome screen; settings: Compound concentration 1.0 uM
[9] = molecular target: C-C chemokine receptor-like 2 (Homo sapiens) (UniProt O00421); test: RLU of CCRL2 at 1.0 µM in the […] PRESTO-Tango GPCRome screen; settings: Compound concentration 1.0 uM
[10] = RLU of HCTR2 at 1.0 µM in the Aequorin PRESTO-Tango GPCRome screen; settings: Homo sapiens; Compound concentration 1.0 uM
[11] = molecular target: Adhesion G-protein coupled receptor D1 (Homo sapiens) (UniProt Q6QNK2); test: RLU of GPR133 at 1.0 µM in the […] PRESTO-Tango GPCRome screen; settings: Compound concentration 1.0 uM
[12] = molecular target: Probable G-protein coupled receptor 142 (Homo sapiens) (UniProt Q7Z601); test: RLU of GPR142 at 1.0 µM in the […] PRESTO-Tango GPCRome screen; settings: Compound concentration 1.0 uM
[13] = molecular target: Neuropeptides B/W receptor type 2 (Homo sapiens) (UniProt P48146); test: RLU of NPBW2 at 1.0 µM in the […] PRESTO-Tango GPCRome screen; settings: Compound concentration 1.0 uM
[14] = molecular target: Substance-P receptor (Homo sapiens) (UniProt P25103); test: RLU of TACR1 at 1.0 µM in the […] PRESTO-Tango GPCRome screen; settings: Compound concentration 1.0 uM
[15] = molecular target: C5a anaphylatoxin chemotactic receptor 1 (Homo sapiens) (UniProt P21730); test: RLU of C5A at 1.0 µM in the […] PRESTO-Tango GPCRome screen; settings: Compound concentration 1.0 uM
[16] = molecular target: 2-oxoglutarate receptor 1 (Homo sapiens) (UniProt Q96P68); test: RLU of OXGR1 at 1.0 µM in the […] PRESTO-Tango GPCRome screen; settings: Compound concentration 1.0 uM
[17] = molecular target: Retinoic acid-induced protein 3 (Homo sapiens) (UniProt Q8NFJ5); test: RLU of GPRC5A at 1.0 µM in the […] PRESTO-Tango GPCRome screen; settings: Compound concentration 1.0 uM
[18] = molecular target: Alpha-1D adrenergic receptor (Homo sapiens) (UniProt P25100); test: RLU of ADRA1D at 1.0 µM in the […] PRESTO-Tango GPCRome screen; settings: Compound concentration 1.0 uM
[19] = molecular target: C-C chemokine receptor type 4 (Homo sapiens) (UniProt P51679); test: RLU of CCR4 at 1.0 µM in the […] PRESTO-Tango GPCRome screen; settings: Compound concentration 1.0 uM
[20] = molecular target: Probable G-protein coupled receptor 27 (Homo sapiens) (UniProt Q9NS67); test: RLU of GPR27 at 1.0 µM in the […] PRESTO-Tango GPCRome screen; settings: Compound concentration 1.0 uM
[21] = molecular target: Lysophosphatidic acid receptor 6 (Homo sapiens) (UniProt P43657); test: RLU of LPAR6 at 1.0 µM in the […] PRESTO-Tango GPCRome screen; settings: Compound concentration 1.0 uM
[22] = molecular target: G-protein coupled receptor 12 (Homo sapiens) (UniProt P47775); test: RLU of GPR12 at 1.0 µM in the […] PRESTO-Tango GPCRome screen; settings: Compound concentration 1.0 uM
[23] = molecular target: Melanocortin receptor 5 (Homo sapiens) (UniProt P33032); test: RLU of MC5R at 1.0 µM in the […] PRESTO-Tango GPCRome screen; settings: Compound concentration 1.0 uM
[24] = molecular target: Cysteinyl leukotriene receptor 1 (Homo sapiens) (UniProt Q9Y271); test: RLU of CYSLTR1 at 1.0 µM in the […] PRESTO-Tango GPCRome screen; settings: Compound concentration 1.0 uM
[25] = molecular target: C-X-C chemokine receptor type 4 (Homo sapiens) (UniProt P61073); test: RLU of CXCR4 at 1.0 µM in the […] PRESTO-Tango GPCRome screen; settings: Compound concentration 1.0 uM
[26] = molecular target: Mas-related G-protein coupled receptor member X1 (Homo sapiens) (UniProt Q96LB2); test: RLU of MRGPRX1 at 1.0 µM in the […] PRESTO-Tango GPCRome screen; settings: Compound concentration 1.0 uM
[27] = molecular target: Metabotropic glycine receptor (Homo sapiens) (UniProt Q5T848); test: RLU of GPR158 at 1.0 µM in the […] PRESTO-Tango GPCRome screen; settings: Compound concentration 1.0 uM
[28] = molecular target: Probable G-protein coupled receptor 32 (Homo sapiens) (UniProt O75388); test: RLU of GPR32 at 1.0 µM in the […] PRESTO-Tango GPCRome screen; settings: Compound concentration 1.0 uM
[29] = molecular target: C-C chemokine receptor type 10 (Homo sapiens) (UniProt P46092); test: RLU of CCR10 at 1.0 µM in the […] PRESTO-Tango GPCRome screen; settings: Compound concentration 1.0 uM
[30] = molecular target: Histamine H2 receptor (Homo sapiens) (UniProt P25021); test: RLU of HRH2 at 1.0 µM in the Aequorin PRESTO-Tango GPCRome screen; settings: Compound concentration 1.0 uM
[31] = molecular target: C-C chemokine receptor type 6 (Homo sapiens) (UniProt P51684); test: RLU of CCR6 at 1.0 µM in the […] PRESTO-Tango GPCRome screen; settings: Compound concentration 1.0 uM
[32] = molecular target: C-X-C chemokine receptor type 5 (Homo sapiens) (UniProt P32302); test: RLU of CXCR5 at 1.0 µM in the […] PRESTO-Tango GPCRome screen; settings: Compound concentration 1.0 uM
[33] = molecular target: G-protein coupled receptor 182 (Homo sapiens) (UniProt O15218); test: RLU of GPR182 at 1.0 µM in the […] PRESTO-Tango GPCRome screen; settings: Compound concentration 1.0 uM
[34] = molecular target: Trace amine-associated receptor 5 (Homo sapiens) (UniProt O14804); test: RLU of TAAR5 at 1.0 µM in the […] PRESTO-Tango GPCRome screen; settings: Compound concentration 1.0 uM
[35] = molecular target: 5-hydroxytryptamine receptor 2A (Homo sapiens) (UniProt P28223); test: RLU of HTR2A at 1.0 µM in the […] PRESTO-Tango GPCRome screen; settings: Compound concentration 1.0 uM

Chain of C-C chemokine receptor type 4 (Homo sapiens) (P51679 whole entry): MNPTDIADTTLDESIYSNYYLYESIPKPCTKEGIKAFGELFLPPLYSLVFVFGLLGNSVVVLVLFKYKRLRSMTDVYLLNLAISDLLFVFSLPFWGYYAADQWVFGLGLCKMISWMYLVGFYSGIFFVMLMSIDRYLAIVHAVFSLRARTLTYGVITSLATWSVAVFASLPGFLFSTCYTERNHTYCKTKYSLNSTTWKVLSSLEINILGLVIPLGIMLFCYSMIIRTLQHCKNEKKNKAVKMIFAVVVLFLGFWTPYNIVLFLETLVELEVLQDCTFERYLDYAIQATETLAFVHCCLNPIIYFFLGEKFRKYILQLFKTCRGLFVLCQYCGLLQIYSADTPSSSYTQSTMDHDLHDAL
Chain of Metabotropic glycine receptor (Homo sapiens) (Q5T848 whole entry): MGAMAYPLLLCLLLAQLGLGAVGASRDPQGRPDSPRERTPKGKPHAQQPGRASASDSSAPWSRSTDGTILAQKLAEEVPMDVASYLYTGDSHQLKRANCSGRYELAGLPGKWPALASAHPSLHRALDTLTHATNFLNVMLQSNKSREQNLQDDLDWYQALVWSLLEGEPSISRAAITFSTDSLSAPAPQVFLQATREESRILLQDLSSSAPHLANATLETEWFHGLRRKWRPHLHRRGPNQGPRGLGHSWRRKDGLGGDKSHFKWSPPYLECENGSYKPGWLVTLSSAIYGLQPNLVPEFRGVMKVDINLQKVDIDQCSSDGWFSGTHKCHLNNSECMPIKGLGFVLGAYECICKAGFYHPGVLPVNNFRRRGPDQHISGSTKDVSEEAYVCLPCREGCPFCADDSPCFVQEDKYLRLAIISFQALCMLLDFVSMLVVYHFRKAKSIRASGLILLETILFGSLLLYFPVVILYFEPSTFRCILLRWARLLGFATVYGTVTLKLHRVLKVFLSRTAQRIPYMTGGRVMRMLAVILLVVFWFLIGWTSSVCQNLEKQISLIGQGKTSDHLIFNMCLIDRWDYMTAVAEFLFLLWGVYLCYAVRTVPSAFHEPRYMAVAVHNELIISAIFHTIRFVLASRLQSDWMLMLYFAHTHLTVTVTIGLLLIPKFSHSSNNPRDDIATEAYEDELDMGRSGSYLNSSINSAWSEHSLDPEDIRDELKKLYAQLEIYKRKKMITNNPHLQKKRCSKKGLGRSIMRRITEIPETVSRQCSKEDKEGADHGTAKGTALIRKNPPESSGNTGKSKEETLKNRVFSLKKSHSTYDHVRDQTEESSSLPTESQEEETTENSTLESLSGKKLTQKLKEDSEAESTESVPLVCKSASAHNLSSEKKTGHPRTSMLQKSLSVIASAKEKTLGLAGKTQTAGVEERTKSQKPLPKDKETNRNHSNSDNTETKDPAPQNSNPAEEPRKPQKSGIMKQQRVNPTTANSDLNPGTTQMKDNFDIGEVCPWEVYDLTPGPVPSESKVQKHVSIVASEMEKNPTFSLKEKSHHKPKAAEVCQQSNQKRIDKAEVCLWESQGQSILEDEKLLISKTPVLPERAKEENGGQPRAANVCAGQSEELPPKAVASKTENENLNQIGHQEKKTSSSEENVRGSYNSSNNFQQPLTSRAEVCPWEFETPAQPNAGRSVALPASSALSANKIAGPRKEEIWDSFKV
Chain of G-protein coupled receptor 135 (Homo sapiens) (Q8IZ08 whole entry): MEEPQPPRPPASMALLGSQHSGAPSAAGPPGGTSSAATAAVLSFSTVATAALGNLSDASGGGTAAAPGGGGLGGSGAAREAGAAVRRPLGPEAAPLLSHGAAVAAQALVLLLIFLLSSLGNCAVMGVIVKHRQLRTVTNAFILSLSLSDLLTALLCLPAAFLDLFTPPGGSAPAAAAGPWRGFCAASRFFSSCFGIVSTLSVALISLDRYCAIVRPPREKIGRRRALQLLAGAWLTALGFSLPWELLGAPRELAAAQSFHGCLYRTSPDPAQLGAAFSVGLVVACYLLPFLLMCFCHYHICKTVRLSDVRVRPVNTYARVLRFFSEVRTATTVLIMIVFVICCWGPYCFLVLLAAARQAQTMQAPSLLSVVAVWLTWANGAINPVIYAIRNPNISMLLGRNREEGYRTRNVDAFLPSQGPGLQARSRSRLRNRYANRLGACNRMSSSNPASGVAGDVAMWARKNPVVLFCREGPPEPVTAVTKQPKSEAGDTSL
Chain of C-C chemokine receptor type 6 (Homo sapiens) (P51684 whole entry): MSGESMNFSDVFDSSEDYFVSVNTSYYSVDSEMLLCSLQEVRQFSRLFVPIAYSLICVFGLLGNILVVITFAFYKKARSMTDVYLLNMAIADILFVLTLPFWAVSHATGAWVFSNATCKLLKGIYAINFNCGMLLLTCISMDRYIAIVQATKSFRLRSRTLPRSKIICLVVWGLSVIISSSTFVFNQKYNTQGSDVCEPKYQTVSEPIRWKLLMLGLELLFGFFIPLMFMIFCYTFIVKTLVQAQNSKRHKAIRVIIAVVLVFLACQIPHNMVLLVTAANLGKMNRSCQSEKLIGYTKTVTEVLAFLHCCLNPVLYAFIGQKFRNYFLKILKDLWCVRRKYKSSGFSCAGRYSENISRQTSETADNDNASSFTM
Chain of C-X-C chemokine receptor type 5 (Homo sapiens) (P32302 whole entry): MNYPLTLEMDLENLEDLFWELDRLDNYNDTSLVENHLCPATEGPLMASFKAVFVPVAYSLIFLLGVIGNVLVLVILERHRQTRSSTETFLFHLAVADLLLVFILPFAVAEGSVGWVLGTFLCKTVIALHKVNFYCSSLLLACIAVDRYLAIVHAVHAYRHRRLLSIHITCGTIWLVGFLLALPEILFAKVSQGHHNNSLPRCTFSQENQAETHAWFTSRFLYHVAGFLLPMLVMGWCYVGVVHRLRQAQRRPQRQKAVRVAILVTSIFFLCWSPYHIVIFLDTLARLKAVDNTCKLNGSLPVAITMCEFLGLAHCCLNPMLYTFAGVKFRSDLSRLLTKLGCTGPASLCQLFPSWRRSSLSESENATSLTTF
Chain of Lysophosphatidic acid receptor 6 (Homo sapiens) (P43657 whole entry): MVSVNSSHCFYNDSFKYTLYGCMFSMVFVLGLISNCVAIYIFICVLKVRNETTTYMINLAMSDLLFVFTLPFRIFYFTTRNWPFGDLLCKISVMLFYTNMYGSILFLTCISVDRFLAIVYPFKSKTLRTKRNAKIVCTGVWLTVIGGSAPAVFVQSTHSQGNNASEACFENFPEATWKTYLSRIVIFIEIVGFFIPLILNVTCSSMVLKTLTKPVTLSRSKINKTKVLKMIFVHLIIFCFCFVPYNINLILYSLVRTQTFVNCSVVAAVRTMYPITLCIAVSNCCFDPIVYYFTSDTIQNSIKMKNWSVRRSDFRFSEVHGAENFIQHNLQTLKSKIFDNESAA
Chain of C-C chemokine receptor-like 2 (Homo sapiens) (O00421 whole entry): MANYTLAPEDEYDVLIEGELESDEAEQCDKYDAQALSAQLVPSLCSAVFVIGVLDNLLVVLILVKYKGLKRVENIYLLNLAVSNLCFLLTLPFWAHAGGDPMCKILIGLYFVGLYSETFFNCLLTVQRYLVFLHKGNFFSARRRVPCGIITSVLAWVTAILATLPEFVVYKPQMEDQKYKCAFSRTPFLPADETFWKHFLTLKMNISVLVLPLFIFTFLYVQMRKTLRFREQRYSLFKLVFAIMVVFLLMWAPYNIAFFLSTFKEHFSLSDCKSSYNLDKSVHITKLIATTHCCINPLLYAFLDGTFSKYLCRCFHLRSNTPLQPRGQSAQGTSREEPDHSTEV
Chain of Probable G-protein coupled receptor 32 (Homo sapiens) (O75388 whole entry): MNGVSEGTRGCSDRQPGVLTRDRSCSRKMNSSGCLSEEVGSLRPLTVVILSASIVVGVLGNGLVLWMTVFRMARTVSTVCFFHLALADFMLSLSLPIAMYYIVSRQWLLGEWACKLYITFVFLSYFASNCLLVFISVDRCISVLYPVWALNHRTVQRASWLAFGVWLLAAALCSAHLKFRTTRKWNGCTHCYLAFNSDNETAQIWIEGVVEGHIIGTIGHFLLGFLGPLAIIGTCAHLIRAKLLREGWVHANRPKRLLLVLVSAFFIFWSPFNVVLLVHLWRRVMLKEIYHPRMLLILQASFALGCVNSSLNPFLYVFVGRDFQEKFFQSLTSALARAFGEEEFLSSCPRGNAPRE
Chain of 5-hydroxytryptamine receptor 4 (Homo sapiens) (Q13639 whole entry): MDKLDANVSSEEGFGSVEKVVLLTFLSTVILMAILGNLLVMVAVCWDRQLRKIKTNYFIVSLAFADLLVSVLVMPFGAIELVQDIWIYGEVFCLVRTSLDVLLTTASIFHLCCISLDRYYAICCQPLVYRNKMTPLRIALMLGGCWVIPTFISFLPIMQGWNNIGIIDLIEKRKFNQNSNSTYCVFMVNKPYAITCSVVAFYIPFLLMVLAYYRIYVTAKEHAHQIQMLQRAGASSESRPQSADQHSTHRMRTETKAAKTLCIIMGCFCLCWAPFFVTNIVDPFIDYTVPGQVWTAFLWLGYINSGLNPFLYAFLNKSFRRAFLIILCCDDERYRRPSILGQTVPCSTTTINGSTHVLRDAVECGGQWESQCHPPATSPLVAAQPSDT
Chain of Probable G-protein coupled receptor 27 (Homo sapiens) (Q9NS67 whole entry): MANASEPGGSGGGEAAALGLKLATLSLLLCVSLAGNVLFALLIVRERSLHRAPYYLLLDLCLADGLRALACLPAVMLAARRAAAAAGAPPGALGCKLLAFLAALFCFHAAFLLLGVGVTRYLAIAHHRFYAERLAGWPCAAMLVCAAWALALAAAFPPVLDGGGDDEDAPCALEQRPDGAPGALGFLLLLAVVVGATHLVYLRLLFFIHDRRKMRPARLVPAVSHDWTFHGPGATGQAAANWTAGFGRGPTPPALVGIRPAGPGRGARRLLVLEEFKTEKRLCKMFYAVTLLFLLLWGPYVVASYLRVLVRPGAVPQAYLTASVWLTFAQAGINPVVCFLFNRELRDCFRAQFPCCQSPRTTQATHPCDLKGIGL
Chain of Adrenocorticotropic hormone receptor (Homo sapiens) (Q01718 whole entry): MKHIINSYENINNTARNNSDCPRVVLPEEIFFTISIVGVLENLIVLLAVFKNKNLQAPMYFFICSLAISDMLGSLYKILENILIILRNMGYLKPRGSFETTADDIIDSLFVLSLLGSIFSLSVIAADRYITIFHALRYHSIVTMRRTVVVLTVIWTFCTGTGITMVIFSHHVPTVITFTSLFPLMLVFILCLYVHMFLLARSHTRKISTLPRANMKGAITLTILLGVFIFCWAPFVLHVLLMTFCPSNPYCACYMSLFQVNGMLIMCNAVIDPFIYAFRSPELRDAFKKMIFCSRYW

RLU [1]: 1070 | RLU [2]: 2860 | RLU [3]: -838 | RLU [4]: 1160 | RLU [5]: -1780 | RLU [6]: 634 | RLU [7]: -2330 | RLU [8]: 1900 | RLU [9]: -1900 | RLU [10]: 2840 | RLU [11]: -2660 | RLU [12]: 2920 | RLU [13]: -872 | RLU [14]: -4720 | RLU [16]: -826 | RLU [17]: 3570 | RLU [18]: 2940 | RLU [19]: 6410 | RLU [20]: -2080 | RLU [21]: -7370 | RLU [22]: 109 | RLU [23]: 481 | RLU [24]: 1610 | RLU [25]: -831 | RLU [26]: 319 | RLU [27]: 1540 | RLU [28]: 5660 | RLU [29]: 464 | RLU [30]: 84.8 | RLU [31]: -2060 | RLU [32]: -793 | RLU [33]: 598 | RLU [34]: 821 | RLU [35]: -2870
Compound: CCCCC(=O)N1CC2(C1)CN(c1ccccc1-c1nnn[nH]1)C2
RLU [15]: 2280

Source: ChEMBL document CHEMBL5723582, “Data for DCP probe T-10430” (2024)
